Test results published in PubChem BioAssay (NCI).
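Tested at 5 concentrations; 48 h exposure; 96-well plates; endpoints linearly interpolated, else capped at highest concentration. Abbreviation: GI50, concentration required for 50% inhibition of growth. TGI marks complete inhibition of growth.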

Assays:
Assay in all cases: growth of human tumour cells (NCI), 48 h
[1] = test system: TK-10 renal
[2] = test system: HCC-2998 colon
[3] = test system: SF-295 CNS
[4] = test system: HT29 colon
[5] = test system: COLO 205 colon
[6] = test system: HOP-92 NSCLC
[7] = test system: CAKI-1 renal
[8] = test system: KM20L2 colon
[9] = test system: NCI-H23 lung
[10] = test system: SK-OV-3 ovarian
[11] = test system: UACC-62 melanoma
[12] = test system: LXFL 529 NSCLC
[13] = test system: SNB-75 CNS
[14] = test system: OVCAR-4 ovarian
[15] = test system: HCT-15 colon
[16] = test system: OVCAR-5 ovarian
[17] = test system: NCI-H522 lung
[18] = test system: SN12C renal
[19] = test system: OVCAR-8 ovarian
[20] = test system: A498 renal
[21] = test system: MOLT-4 leukemia
[22] = test system: ACHN renal
[23] = test system: KM12 colon
[24] = test system: CCRF-CEM leukemia
[25] = test system: UO-31 renal
[26] = test system: U251 CNS
[27] = test system: DMS 114 small cell lung
[28] = test system: UACC-257 melanoma
[29] = test system: DMS 273 small cell lung
[30] = test system: SK-MEL-28 melanoma
[31] = test system: HCT-116 colon
[32] = test system: M14 melanoma
[33] = test system: IGROV1 ovarian
[34] = test system: MALME-3M melanoma
[35] = test system: LOX IMVI melanoma
[36] = test system: SNB-19 CNS
[37] = test system: SF-539 CNS
[38] = test system: SR leukemia
[39] = test system: SW-620 colon
[40] = test system: SK-MEL-2 melanoma
[41] = test system: NCI-H460 lung
[42] = test system: HL-60(TB) leukemia
[43] = test system: DLD-1 colon
[44] = test system: K-562 leukemia
[45] = test system: OVCAR-3 ovarian
[46] = test system: 786-0 renal
[47] = test system: A549 NSCLC
[48] = test system: SK-MEL-5 melanoma
[49] = test system: NCI-H226 lung
[50] = test system: EKVX NSCLC
[51] = test system: HOP-18 NSCLC
[52] = test system: HOP-62 NSCLC
[53] = test system: M19-MEL melanoma
[54] = test system: SNB-78 CNS
[55] = test system: RPMI-8226 leukemia
[56] = test system: SF-268 CNS
[57] = test system: RXF 393 renal

## COC(=O)C1Cc2c([nH]c3ccccc23)C(c2ccccc2O)N1 (stereo not given)
[1]
  TGI: > 100 µM
[2]
  TGI: > 100 µM
[3]
  TGI: > 100 µM
[4]
  TGI: > 100 µM
[5]
  TGI: 93.8 µM
[6]
  TGI: > 100 µM
[7]
  TGI: > 100 µM
[8]
  TGI: > 100 µM
[9]
  TGI: > 100 µM
[10]
  TGI: > 100 µM
[11]
  TGI: > 100 µM
[12]
  TGI: > 100 µM
[13]
  TGI: > 100 µM
[14]
  TGI: > 100 µM
[15]
  TGI: > 100 µM
[16]
  TGI: > 100 µM
[17]
  TGI: > 100 µM
[18]
  TGI: > 100 µM
[19]
  TGI: > 100 µM
[20]
  TGI: > 100 µM
[21]
  TGI: > 100 µM
[22]
  TGI: > 100 µM
[23]
  TGI: > 100 µM
[24]
  TGI: > 100 µM
[25]
  TGI: 97.9 µM
[26]
  TGI: > 100 µM
[27]
  TGI: > 100 µM
[28]
  TGI: > 100 µM
[29]
  TGI: > 100 µM
[30]
  TGI: > 100 µM
[31]
  TGI: > 100 µM
[32]
  TGI: > 100 µM
[33]
  TGI: > 100 µM
[34]
  TGI: > 100 µM
[35]
  TGI: > 100 µM
[36]
  TGI: > 100 µM
[37]
  TGI: > 100 µM
[38]
  TGI: > 100 µM
[39]
  TGI: > 100 µM
[40]
  TGI: > 100 µM
[41]
  TGI: 47.1 µM
[42]
  TGI: 75.4 µM
[43]
  TGI: > 100 µM
[44]
  TGI: > 100 µM
[45]
  TGI: > 100 µM
[46]
  TGI: > 100 µM
[47]
  TGI: > 100 µM
[48]
  TGI: > 100 µM
[49]
  TGI: > 100 µM
[50]
  TGI: > 100 µM
[51]
  TGI: > 100 µM

## NCCN.O=C([O-])C(=O)[O-].O=C([O-])C(=O)[O-].[Co+3].[K+]
[1]
  GI50: > 100 µM
  TGI: > 100 µM
[2]
  GI50: > 100 µM
  TGI: > 100 µM
[3]
  GI50: > 100 µM
  TGI: > 100 µM
[4]
  GI50: > 100 µM
  TGI: > 100 µM
[5]
  GI50: > 100 µM
  TGI: > 100 µM
[6]
  GI50: > 100 µM
  TGI: > 100 µM
[8]
  GI50: > 100 µM
  TGI: > 100 µM
[9]
  GI50: > 100 µM
  TGI: > 100 µM
[10]
  GI50: > 100 µM
  TGI: > 100 µM
[11]
  GI50: > 100 µM
  TGI: > 100 µM
[12]
  GI50: > 100 µM
  TGI: > 100 µM
[13]
  GI50: > 100 µM
  TGI: > 100 µM
[14]
  GI50: > 100 µM
  TGI: > 100 µM
[15]
  GI50: > 100 µM
  TGI: > 100 µM
[16]
  GI50: > 100 µM
  TGI: > 100 µM
[17]
  GI50: 92.4 µM
  TGI: > 100 µM
[18]
  GI50: > 100 µM
  TGI: > 100 µM
[52]
  GI50: > 100 µM
  TGI: > 100 µM
[19]
  GI50: > 100 µM
  TGI: > 100 µM
[20]
  GI50: > 100 µM
  TGI: > 100 µM
[21]
  GI50: > 100 µM
  TGI: > 100 µM
[22]
  GI50: > 100 µM
  TGI: > 100 µM
[23]
  GI50: > 100 µM
  TGI: > 100 µM
[24]
  GI50: > 100 µM
  TGI: > 100 µM
[25]
  GI50: > 100 µM
  TGI: > 100 µM
[53]
  GI50: > 100 µM
  TGI: > 100 µM
[26]
  GI50: > 100 µM
  TGI: > 100 µM
[54]
  GI50: > 100 µM
  TGI: > 100 µM
[27]
  GI50: > 100 µM
  TGI: > 100 µM
[28]
  GI50: > 100 µM
  TGI: > 100 µM
[30]
  GI50: > 100 µM
  TGI: > 100 µM
[31]
  GI50: > 100 µM
  TGI: > 100 µM
[32]
  GI50: > 100 µM
  TGI: > 100 µM
[33]
  GI50: > 100 µM
  TGI: > 100 µM
[34]
  GI50: > 100 µM
  TGI: > 100 µM
[35]
  GI50: > 100 µM
  TGI: > 100 µM
[36]
  GI50: > 100 µM
  TGI: > 100 µM
[37]
  GI50: > 100 µM
  TGI: > 100 µM
[39]
  GI50: > 100 µM
  TGI: > 100 µM
[55]
  GI50: > 100 µM
  TGI: > 100 µM
[40]
  GI50: > 100 µM
  TGI: > 100 µM
[41]
  GI50: > 100 µM
  TGI: > 100 µM
[42]
  GI50: > 100 µM
  TGI: > 100 µM
[43]
  GI50: > 100 µM
  TGI: > 100 µM
[44]
  GI50: > 100 µM
  TGI: > 100 µM
[45]
  GI50: > 100 µM
  TGI: > 100 µM
[46]
  GI50: > 100 µM
  TGI: > 100 µM
[47]
  GI50: > 100 µM
  TGI: > 100 µM
[48]
  GI50: > 100 µM
  TGI: > 100 µM
[56]
  GI50: > 100 µM
  TGI: > 100 µM
[50]
  GI50: > 100 µM
  TGI: > 100 µM

## COc1cc2ccc1NC(=O)N1CCN(CC1)C(=O)Nc1ccc(cc1OC)-c1ccc(c(OC)c1)NC(=O)N1CCN(CC1)C(=O)Nc1ccc-2cc1OC
[2]
  TGI: > 100 µM
[3]
  TGI: > 100 µM
[4]
  TGI: > 100 µM
[5]
  TGI: > 100 µM
[6]
  TGI: > 100 µM
[9]
  TGI: > 100 µM
[10]
  TGI: > 100 µM
[11]
  TGI: > 100 µM
[12]
  TGI: > 100 µM
[13]
  TGI: > 100 µM
[14]
  TGI: > 100 µM
[17]
  TGI: > 100 µM
[52]
  TGI: > 100 µM
[20]
  TGI: > 100 µM
[21]
  TGI: > 100 µM
[57]
  TGI: > 100 µM
[22]
  TGI: > 100 µM
[23]
  TGI: > 100 µM
[24]
  TGI: > 100 µM
[25]
  TGI: > 100 µM
[53]
  TGI: > 100 µM
[54]
  TGI: > 100 µM
[27]
  TGI: > 100 µM
[28]
  TGI: > 100 µM
[30]
  TGI: > 100 µM
[31]
  TGI: > 100 µM
[32]
  TGI: > 100 µM
[33]
  TGI: > 100 µM
[36]
  TGI: > 100 µM
[37]
  TGI: > 100 µM
[38]
  TGI: > 100 µM
[55]
  TGI: > 100 µM
[40]
  TGI: > 100 µM
[41]
  TGI: > 100 µM
[44]
  TGI: > 100 µM
[45]
  TGI: > 100 µM
[56]
  TGI: > 100 µM
